Six compounds from patent US6953800B2, “Use of selective antagonists of the α1B-adrenergic receptor for improvement of sexual dysfunction” (Recordati S.A. Chemical, priority 1999, dated 2005) can be followed below.

The term Ki denotes a measure of affinity in units of concentration, obtained from inhibition or displacement.

One data set has as its target T1, human α1d-adrenoceptor (Homo sapiens, UniProt P25100).
T1 construct: expressed in transfected cells
T1 sequence (P25100 1-572): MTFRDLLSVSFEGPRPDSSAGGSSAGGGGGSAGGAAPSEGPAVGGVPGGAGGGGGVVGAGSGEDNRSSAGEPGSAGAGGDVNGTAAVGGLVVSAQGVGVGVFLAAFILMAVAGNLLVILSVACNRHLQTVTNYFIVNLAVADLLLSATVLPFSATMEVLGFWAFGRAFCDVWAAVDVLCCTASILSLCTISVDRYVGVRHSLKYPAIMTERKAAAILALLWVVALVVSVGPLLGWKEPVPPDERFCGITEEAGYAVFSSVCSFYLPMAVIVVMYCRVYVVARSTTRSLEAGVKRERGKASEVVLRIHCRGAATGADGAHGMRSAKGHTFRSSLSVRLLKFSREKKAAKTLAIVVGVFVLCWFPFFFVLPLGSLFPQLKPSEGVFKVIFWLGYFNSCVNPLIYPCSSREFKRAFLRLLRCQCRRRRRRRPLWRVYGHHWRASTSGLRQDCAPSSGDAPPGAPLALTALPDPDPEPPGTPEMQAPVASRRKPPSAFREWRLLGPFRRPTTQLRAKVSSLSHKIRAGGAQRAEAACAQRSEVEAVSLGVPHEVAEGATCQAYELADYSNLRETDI
The data set is described as follows: [3H]Prazosin binding, cloned human α1d-adrenoceptor in CHO cell membranes. As to conditions: read-out: Affinity (Ki) α1d, human cloned receptors. As for the experimental part: (§1) Binding to cloned human α1-adrenoceptor subtypes was performed in membranes from CHO cells (Chinese hamster ovary cells) transfected by electroporation with DNA expressing the gene encoding each α1-adrenoceptor subtype. […] The incubation was stopped by addition of ice-cold Tris buffer and rapid filtration through 0.2% polyethyleneimine-pretreated Whatman GF/B or Schleicher & Schuell GF52 filters.
(§2) Data are expressed as mean Ki. All patents and other references cited herein are incorporated by reference in their entirety.

The target of another data set is T2, human α1a-adrenoceptor (Homo sapiens, UniProt P35348).
T2 sequence (P35348 1-466): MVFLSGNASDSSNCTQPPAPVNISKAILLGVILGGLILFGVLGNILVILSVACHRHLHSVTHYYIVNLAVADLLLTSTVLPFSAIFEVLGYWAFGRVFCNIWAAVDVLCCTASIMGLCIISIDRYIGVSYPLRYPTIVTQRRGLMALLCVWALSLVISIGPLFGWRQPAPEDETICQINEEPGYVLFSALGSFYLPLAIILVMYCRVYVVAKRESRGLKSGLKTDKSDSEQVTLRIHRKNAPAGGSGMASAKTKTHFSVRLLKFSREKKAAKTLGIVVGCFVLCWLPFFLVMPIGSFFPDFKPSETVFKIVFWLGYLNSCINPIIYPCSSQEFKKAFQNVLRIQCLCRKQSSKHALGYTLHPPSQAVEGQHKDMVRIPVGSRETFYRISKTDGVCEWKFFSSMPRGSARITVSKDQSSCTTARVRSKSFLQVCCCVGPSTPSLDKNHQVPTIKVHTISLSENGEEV
Nature of the data set: biochemical.

The target of a further data set is T3, human α1b-adrenoceptor (Homo sapiens, UniProt P35368).
T3 construct: expressed in transfected cells
T3 sequence (P35368 1-520): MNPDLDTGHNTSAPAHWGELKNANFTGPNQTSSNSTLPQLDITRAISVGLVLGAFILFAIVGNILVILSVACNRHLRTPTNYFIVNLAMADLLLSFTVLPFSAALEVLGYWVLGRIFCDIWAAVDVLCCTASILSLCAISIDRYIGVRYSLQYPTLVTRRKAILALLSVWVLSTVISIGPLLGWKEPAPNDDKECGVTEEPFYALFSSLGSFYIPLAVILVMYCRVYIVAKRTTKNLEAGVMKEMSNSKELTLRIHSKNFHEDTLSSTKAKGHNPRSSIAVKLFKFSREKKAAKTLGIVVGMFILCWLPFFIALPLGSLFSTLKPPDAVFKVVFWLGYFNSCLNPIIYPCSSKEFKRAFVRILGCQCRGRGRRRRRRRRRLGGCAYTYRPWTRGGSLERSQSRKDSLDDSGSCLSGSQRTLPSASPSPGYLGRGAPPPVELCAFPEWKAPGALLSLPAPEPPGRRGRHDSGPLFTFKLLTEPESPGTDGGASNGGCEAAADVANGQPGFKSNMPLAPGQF
The data set is described as follows: [3H]Prazosin binding, cloned human α1b-adrenoceptor in CHO cell membranes. As to conditions: CHO membranes; read-out: Affinity (Ki) α1b, human cloned receptors. Here is the method: as §1, §2

A further data set relates to anaesthetised rats. The data set is described as follows: Intracavernous and blood pressure recording in rats. It is filed as in vivo, rat. As to conditions: for decrease of blood pressure: after injection of 1000 μg/kg intracavernous; for effect on ICP (in words): intracavernous injection; for hypotension (in words, FIG. 1): marked hypotension defined as decrease of blood pressure equal to or higher than 40%. Here is the method:
Rats were anaesthetised by an intraperitoneal injection of urethane (1.5 g/kg in sterile saline) and placed on an homeothermic blanket. Their temperature was maintained at 37° C. Rats were tracheotomized to facilitate spontaneous breathing and to prevent aspiration of saliva. A catheter filled with heparinized saline (25 IU/ml) was placed into the carotid to record mean blood pressure (BP, mmHg). The penis was desheathed and the corpora cavernosa were exposed. A 25-gauge stainless-steel needle was inserted into one corpus cavernosum to record intracavernous pressure (ICP in mmHg). […] Pressure catheters were connected to pressure transducers (Model 750, Elcomatic Ltd, Glasgow, UK).
Following a resting period of 10 minutes, the compound solvent was delivered intracavernously (50 μl/injection). Then, increasing doses of one compound were injected every ten minutes by the same route. Five injections (one solvent plus four cumulative doses) were performed in each rat, and five rats were used for the study of one compound. For each injection and for each compound, mean BP averaged over the ten minutes following the injection was measured. The maximal ICP value reached during the ten-minute period following an injection was also recorded. In these experiments, all the compounds tested were dissolved and diluted in propylene glycol-Sorensen solvent.

The subject of data set [1] is anaesthetised dogs. The conditions noted are these: dog, in vivo.
Protocol: (§3) Male beagle dogs were anaesthetised with pentobarbital sodium (i.v. Nembutal, 35 mg/kg for induction and 4 mg/kg/h for maintenance) and intubated with an endotracheal cuffed tube to facilitate free ventilation. A collateral of the left femoral vein was cannulated with a PE catheter for infusion of the anaesthetic. Systemic BP was monitored via a Mikro-tip 6F (Millar Instruments) pressure transducer introduced into the aortic arch through the right common carotid artery. ICP was measured by means of a 20-gauge needle placed into the left or right corpus cavernosum and the same needle was used for intracavernous injection of the drugs. The needle was attached to a catheter filled with heparinized saline (25 IU/mL). […] The compounds to be tested were injected intracavernously in a volume of 0.5 ml and, after each injection, the needle was flushed with 0.5 ml of saline. The vehicles for compound dissolution were tested before the first dose of each drug. The compounds were administered in a cumulative way, with a 30-minute interval between doses. ICP (mmHg) was measured at the peak effect after the administration of the compounds. The duration of tumescence (DT, min) was measured from the beginning of the rise of ICP over its basal value up to the return to baseline. The systolic blood pressure and diastolic blood pressure (mmHg) were measured at the peak effect after the administration of compounds, in order to evaluate the effects of the compounds on BP independently from the effects on ICP. Moreover, the systolic blood pressure was measured at the time of maximal ICP value after intracavernous injection, to evaluate the ICP/BP ratios. […] The data were reported as mean ±s.e. of the mean, or percent variation (±s.e.) of the basal values.
The test system of data set [2] is anaesthetised dogs. The data set is described as follows: Intracavernous and blood pressure recording in dogs. The conditions noted are these: for increase of ICP in comparison with basal ICP values: 1000 μg/kg (1000 μg given for prazosin, phentolamine) intracavernous; for effect on ICP (in words): intracavernous injection.
Protocol: as §3
In the next data set the target is T4, bovine α1a-adrenoceptor (Bos taurus, UniProt P18130).
T4 construct: expressed in transfected cells; host or cells: COS-7 cells (transient), membranes
T4 sequence (P18130 1-466): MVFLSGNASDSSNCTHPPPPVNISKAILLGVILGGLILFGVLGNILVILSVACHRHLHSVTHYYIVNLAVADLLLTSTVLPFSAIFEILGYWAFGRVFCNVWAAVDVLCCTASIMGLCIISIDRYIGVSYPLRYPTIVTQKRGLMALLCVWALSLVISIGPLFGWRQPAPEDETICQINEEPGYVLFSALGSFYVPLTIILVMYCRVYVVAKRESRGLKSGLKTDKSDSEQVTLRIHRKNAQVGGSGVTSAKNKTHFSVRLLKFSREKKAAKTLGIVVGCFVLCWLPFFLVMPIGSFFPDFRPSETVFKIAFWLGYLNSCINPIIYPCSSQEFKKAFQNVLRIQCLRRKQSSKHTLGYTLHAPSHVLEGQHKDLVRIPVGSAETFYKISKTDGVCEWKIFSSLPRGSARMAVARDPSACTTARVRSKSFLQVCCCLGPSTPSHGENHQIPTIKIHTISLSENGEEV
The data set is described as follows: [3H]Prazosin binding, bovine α1a-adrenoceptor in COS-7 cell membranes. Here is the method:
The incubation was stopped by addition of ice-cold Tris buffer and rapid filtration through 0.2% polyethyleneimine pretreated Whatman GF/B or Schleicher & Schuell GF52 filters.
as §2

Counter-ions that a name gives are not always drawn.

Turning to `COc1cc2nc(N3CCN(C(=O)c4ccco4)[C@H](C(=O)NC(C)(C)C)C3)nc(N)c2cc1OC` [Compound C, 4-Amino-6,7-dimethoxy-2-[(3S)-3-(t-butylcarbamoyl)-4-(2-furoyl)-1-piperazinyl]-quinazoline], the results for the Ki on human α1d-adrenoceptor, at human α1a-adrenoceptor and on human α1b-adrenoceptor were 25.1 nM, 94.1 nM and 1.76 nM, respectively.
Take `COc1cc2nc(N3CCN(C(=O)c4ccco4)CC3)nc(N)c2cc1OC` [Prazosin]: the BP worked out at 59.4 ± 7.7 mmHg in the data set on anaesthetised rats (10 μg/kg intracavernous); 60.0 ± 7.4 mmHg in the data set with anaesthetised rats (30 μg/kg intracavernous); 56.8 ± 7.9 mmHg in the data set with anaesthetised rats (100 μg/kg intracavernous); 41.3 ± 3.0 mmHg with anaesthetised rats (300 μg/kg intracavernous); 43.7 ± 4.1 mmHg in the data set with anaesthetised rats (1000 μg/kg intracavernous). Also, the ICP came out at 20.1 ± 6.4 mmHg with anaesthetised rats (10 μg/kg intracavernous); 14.9 ± 3.3 mmHg with anaesthetised rats (30 μg/kg intracavernous); 19.0 ± 6.6 mmHg in the data set on anaesthetised rats (100 μg/kg intracavernous); 18.9 ± 6.8 mmHg with anaesthetised rats (300 μg/kg intracavernous); 26.9 ± 3.5 mmHg in the data set on anaesthetised rats (1000 μg/kg intracavernous); 25.5 ± 6.3 mmHg in the data set with anaesthetised dogs [2] (30 μg/kg intracavernous). In addition, the ICP was 27.0 ± 8.7 mmHg with anaesthetised dogs [2] (100 μg/kg intracavernous), 37.5 ± 5.0 mmHg in the data set with anaesthetised dogs [2] (300 μg/kg intracavernous) and 52.5 ± 5.0 mmHg with anaesthetised dogs [2] (1000 μg/kg intracavernous). The “decrease of blood pressure” value with anaesthetised rats was 41%. Further, the “effect on ICP (in words)” value was “unable to elicit any ICP increase” in the data set on anaesthetised rats and “increased ICP at doses that induced substained hypotension” in the data set on anaesthetised dogs [2]. Besides, in the data set with anaesthetised rats, the “hypotension (in words, FIG. 1)” value is listed as “marked hypotension”. In addition, in the data set on anaesthetised dogs [1], the “hypotension (in words)” value is reported as “marked hypotension”. Besides, the “decrease of diastolic blood pressure” value with anaesthetised dogs [2] (1000 μg intracavernous) came out at 71 mmHg. Further, in the data set on anaesthetised dogs [2], the “increase of ICP in comparison with basal ICP values” worked out at 36 mmHg.
Turning to `Cc1ccc(N(CC2=NCCN2)c2cccc(O)c2)cc1` [Phentolamine], the BP with anaesthetised rats (10 μg/kg intracavernous) is 79.8 ± 7.3 mmHg; with anaesthetised rats (30 μg/kg intracavernous), 72.2 ± 4.3 mmHg; in the data set on anaesthetised rats (100 μg/kg intracavernous), 61.1 ± 7.0 mmHg; in the data set with anaesthetised rats (300 μg/kg intracavernous), 63.0 ± 2.2 mmHg; with anaesthetised rats (1000 μg/kg intracavernous), 59.8 ± 3.6 mmHg. Besides, the ICP with anaesthetised rats (10 μg/kg intracavernous) is listed as 12.6 ± 1.7 mmHg; in the data set on anaesthetised rats (30 μg/kg intracavernous), 10.1 ± 1.4 mmHg; in the data set with anaesthetised rats (100 μg/kg intracavernous), 10.5 ± 1.4 mmHg; in the data set with anaesthetised rats (300 μg/kg intracavernous) it was 12.5 ± 2.3 mmHg; in the data set with anaesthetised rats (1000 μg/kg intracavernous), 20.6 ± 2.1 mmHg; in the data set on anaesthetised dogs [2] (10 μg/kg intracavernous) it was 24.0 ± 0.0 mmHg. Also, the ICP is given as 20.0 ± 2.3 mmHg in the data set with anaesthetised dogs [2] (30 μg/kg intracavernous), 16.0 ± 2.3 mmHg with anaesthetised dogs [2] (300 μg/kg intracavernous) and 62.7 ± 24.3 mmHg in the data set on anaesthetised dogs [2] (1000 μg/kg intracavernous). In addition, in the data set with anaesthetised rats, the “decrease of blood pressure” value turned out to be 30%. Besides, the “effect on ICP (in words)” value was “did not modify ICP up to 300 μg/kg” with anaesthetised rats and “increased ICP at doses that induced substained hypotension” with anaesthetised dogs [2]. Moreover, the “hypotension (in words, FIG. 1)” value in the data set with anaesthetised rats is “marked hypotension”. Also, in the data set with anaesthetised dogs [1], the “hypotension (in words)” value was “relevant hypotension”. The same compound showed a Ki on bovine α1a-adrenoceptor of 3.22 nM. Moreover, the “increase of ICP in comparison with basal ICP values” in the data set with anaesthetised dogs [2] is on record as 43 mmHg. Further, the “DT (duration of tumescence)” value in the data set with anaesthetised dogs [2] (1000 μg/kg intracavernous) was 4.2 ± 2.1 min.
On to `COc1cc2nc(N3CCN(C(=O)OCc4ccccc4)C4CCCCC43)nc(N)c2cc1OC` (racemic) [Example 7, 4-Amino-6,7-dimethoxy-2-[(±)-4-benzyloxycarbonyl-cis-octahydro-1-quinoxalinyl]-quinazoline hydrochloride.0.75H2O], for which the Ki at human α1b-adrenoceptor was 0.65 nM.
As to `COc1cc2nc(N3CCN(C(=O)COc4c(OC)cccc4C(C)C)C4CCCCC43)nc(N)c2cc1OC` (racemic) [Example 4, 4-Amino-6,7-dimethoxy-2-[(±)-4-(2-isopropyl-6-methoxyphenoxyacetyl)-cis-octahydro-1-quinoxalinyl]quinazoline hydrochloride.2.5H2O], the Ki on human α1b-adrenoceptor was found to be 0.16 nM.
On the same count and under the same terms, in the case of `COc1cc2nc(N3CCN(C(=O)c4ccc(C)o4)C4CCCCC43)nc(N)c2cc1OC` (racemic) [Example 5, 4-Amino-6,7-dimethoxy-2-[(±)-4-(5-methyl-2-furoyl)-cis-octahydro-1-quinoxalinyl]-quinazoline hydrochloride.2.5H2O] it was 0.24 nM.
